Measured values: patent publication US9695148B2, “2-pyridone compound” (TAISHO PHARMACEUTICAL CO., LTD., priority 2012, dated 2017)

Tests used:
[1] = test system: C57BL6/J mice; assay: Hypoglycemia test using C57BL6/J mice; format: in vivo; conditions: oral, ad libitum fed C57BL6/J mice, plasma glucose AUC 0-6 hours vs control group
Procedure: The test to verify the hypoglycemic effect of the test compounds was carried out in accordance with a method commonly used and represented by the method of Grimsby et. al (Science 301: 370-373, 2003).
The body weight of C57BL6/J mice (N=6), who were ad libitum fed before the test, was measured. The test compound was suspended or dissolved in the base to be administered (0.5% methyl cellulose) at a concentration of 0.06 to 20 mg/mL. The mice were orally administered with 5 mL/kg of a drug solution (equivalent to 0.3 to 100 mg/kg of the test compound) or control (only the base to be administered). About 60 μL of blood was collected from the tail vein using a capillary tube immediately before administration of the test compound and 0.5, 1, 2, 4 and 6 hours after administration of the test compound. The collected blood was centrifuged and subsequently measured for the plasma glucose concentration. The area under the curve (AUC) was calculated from changes over time in the plasma glucose concentration after administration of the test compound, and a reduction rate (%) to AUC of the control group was calculated. The dose at which an AUC decreasing percentage was 20% (ED20 value; mg/kg) was calculated from the dose response curve having the AUC reduction rate plotted on the vertical axis and the dose plotted on the horizontal axis.

[2] = biological target: T1, human liver GK (Homo sapiens, UniProt P35557); assay: GK activation test; format: biochemical; conditions: GST-fused human liver GK, 4 mM glucose, 2 mM ATP, absorbance at 405 nm after 15 minutes; read-out: EC50 (test compound concentration needed to activate 50% of the maximum activation ability)
T1 construct: GST (glutathione S-transferase) (N); made in house; host or cells: E. coli
T1 sequence (P35557 1-466 isoform P35557-2): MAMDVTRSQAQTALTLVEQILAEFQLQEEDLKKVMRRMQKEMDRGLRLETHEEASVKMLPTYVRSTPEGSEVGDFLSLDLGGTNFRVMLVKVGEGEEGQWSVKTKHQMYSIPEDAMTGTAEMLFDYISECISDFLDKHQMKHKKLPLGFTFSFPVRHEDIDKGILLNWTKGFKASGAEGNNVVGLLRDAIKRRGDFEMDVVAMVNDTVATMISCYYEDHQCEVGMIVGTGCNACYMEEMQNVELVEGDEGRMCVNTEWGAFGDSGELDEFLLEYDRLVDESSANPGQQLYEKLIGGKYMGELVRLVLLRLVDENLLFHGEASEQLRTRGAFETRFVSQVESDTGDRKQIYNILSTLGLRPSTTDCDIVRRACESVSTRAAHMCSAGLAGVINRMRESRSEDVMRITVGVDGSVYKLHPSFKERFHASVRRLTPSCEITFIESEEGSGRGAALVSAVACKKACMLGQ
Procedure: The GK activation test for the test compounds was carried out by the method of Van Schaftingen et al. (Eur. J. Biochem. 179:179-184, 1989) with partial modifications. The GK activity was measured by the change in the absorbance based on an amount of thio-NADH, which is a reduced form product converted from thio-NAD+ (thionicothinamide-adeninedinucleotide) when dehydrogenating glucose 6-phosphate, produced by GK using glucose as a matrix, with G6PDH (glucose-6-phosphate dehydrogenase).
The enzyme source used in this assay, human liver GK, was expressed in E. coli as a fusion protein with GST (glutathione S-transferase) added to the amino terminus and was purified using Glutathione Sepharose 4B (Amersham Biosciences).
The test was carried out using flat-bottom 96-well half area microplates (Corning). A solution of the test compound in dimethyl sulfoxide (DMSO) at a final concentration of 1% in DMSO and DMSO as a control were added to each well of the plates. Further, 25 mM Hepes-KOH (pH=7.1), 25 mM KCl, 2 mM MgCl2, 2 mM thio-NAD+, 4 mM glucose, 1 mM DTT (dithiothreitol), 0.01 units/μL G6PDH and 2 μg/mL human liver GK were added as the final concentrations, respectively, to each of the wells. Subsequently, ATP was added to each of the wells to give the final concentration of 2 mM, and the reaction was started. The microplates were allowed to stand at room temperature. After 15 minutes from the start of reaction, the absorbance at 405 nm was measured using an absorption spectrometer for microplate.
The GK activity maximally activated by the test compound was taken as the maximum activation ability, and the test compound concentration (nM) needed to activate 50% of that maximum activation ability was expressed as EC50.

EC50 [2] | Compound | ED20 (dose at which the plasma glucose AUC decreasing percentage was 20%) [1]
295 nM | CC(F)(F)c1ccc([C@@H](C[C@H]2CCC(=O)N2)c2ccc(C3CC3)c(=O)[nH]2)cc1 [Compound [1], 3-cyclopropyl-6-{(1R)-1-[4-(1,1-difluoroethyl)phenyl]-2-[(2R)-5-oxopyrrolidin-2-yl]ethyl}pyridin-2(1H)-one] | 4.2 mg/kg
597 nM | O=C1CC[C@H](C[C@H](c2ccc(C(F)F)cc2)c2ccc(C3CC3)c(=O)[nH]2)N1 [Compound C] | 32.0 mg/kg
1330 nM | CC(F)(F)c1ccc([C@@H](C[C@H]2CCC(=O)N2)c2ccc(C3CC3)c(=O)[nH]2)cc1 (single isomer, unassigned) [Compound B] | 15.6 mg/kg
520 nM | CCc1ccc([C@@H](C[C@H]2CCC(=O)N2)c2ccc(C3CC3)c(=O)[nH]2)cc1 [Compound A] | 11.5 mg/kg
